Experimental data: patent publication EP3263567A1, “CARBOXAMIDE-SUBSTITUTED PYRAZOLES AND TRI(HETERO)ARYL-PYRAZOLES FOR USE IN METHODS OF TREATING AND / OR PREVENTING CARDIOVASCULAR DISEASES AND / OR COMORBIDITIES THEREOF” (AiCuris Anti-infective Cures GmbH, priority 2016, dated 2018)
Values after ≈ are worked out from the molar mass of the structure shown.

Experiments:
Beagle dogs = assay: 4-week beagle dog experiment, toxicity observations; type: in vivo
Description: [drawing 93] i.e. 4-[5-[3-Chloro-5-(trifluoromethoxy)phenyl]-1-(pyridin-3-yl)-1H-pyrazol-3-yl]-5,6-dihydro-7H-pyrrolo[3,4-d]pyrimidin-7-one, was administered in a 4-week beagle dog experiment with integrated non-invasive telemetric electrocardiography (ECG) measurements for determining its cardiovascular effects; specifically its effects on the heart rate.
32 Beagle dogs (16 males and 16 females) with parameters in the normal range were tested for cardiovascular effects of Compound A administration and divided into the study groups indicated below.
Duration of study: • 4 acclimatization weeks • 4 test weeks • 4 additional test weeks for the animals scheduled for the recovery period.
The test compound A-formulation of the appropriate concentration was administered by oral administration at a constant administration volume/kg b.w.
• Groups 1 and 4: Twice daily at an 8-hour interval for 28 consecutive days. • Groups 2 to 3: Once daily for 28 consecutive days.
The animals were observed individually before and after dosing at each time of dosing for any signs of behavioural changes, reaction to treatment or illness.
Kennel side observations included skin/fur, eyes, mucous membranes, respiratory and circulatory systems, somatomotor activity and behaviour patterns. The onset, intensity, and duration of any signs observed were recorded.

Cav1.2 = molecular target: T1, Cav1.2 (Homo sapiens, UniProt Q13936); assay: Whole-cell patch-clamp, Cav1.2 currents in stably transfected CHO cells; type: cell-based; details: summary statement
T1 construct: expressed in transfected cells; host or cells: CHO (ATCC CCL-61), stably transfected; selection with Hygromycin, Geneticin and Zeocin
Description: (§1) [drawing 92] i.e. 4-[5-[3-Chloro-5-(trifluoromethoxy) phenyl]-1-(pyridin-3-yl)-1H-pyrazol-3-yl]-5,6-dihydro-7H-pyrrolo[3,4-d]pyrimidin-7-one, was tested for its effects on human Nav1.5, Cav1.2, Kv1.5, and HCN4 currents recorded from stably transfected CHO cells. The effect of four concentrations of this compound on these currents was investigated.
(§2) The whole-cell patch-clamp technique was used to investigate the effect of Compound A on the currents of Nav1.5, Kv1.5, Cav1.2 and HCN4 channels, expressed in CHO cells (ATCC, CCL-61). Compound A was tested at concentrations of 200 nM, 600 nM, 2000 nM and 6000 nM. […]
(§3) The 35 mm culture dishes upon which cells were seeded at a density allowing single cells to be recorded were placed on the dish holder of the microscope and continuously perfused (at approximately 1 mL/min) with the bath solution described in section 4.7. […]
(§4) As soon as a stable seal could be established outward tail currents were measured upon pulses described in the Table below: […]
(§5) Values in Ampere (A) of the peak amplitudes of outward tail currents were generated for each voltage step. […] The recorded current amplitudes at the steady state level of current inhibition were compared to those from control conditions measured in the pre-treatment phase of the same cell. The amount of current block was calculated as percentage of control. […]

[1] = 10-day dose-range-finding study in dogs; type: in vivo
Description: For the dog study, single dose data are available at 3, 30 and 100 mg/kg and repeated dose data (10 days of treatment) are available at 30, 100 and 2 x 50 mg/kg. At a single dose of 30 mg/kg, no further increase in exposure or Cmax is apparent. In the 10-day DRF study (LPT Study No. 31586) it was investigated whether after multiple dosing any accumulation would be apparent and therefore dose levels of 30 and 100 mg/kg were selected in this study. In addition, the highest daily dose (i.e. 100 mg/kg) was also administered as 50 mg/kg twice daily (8-h interval) to investigate possible beneficial effects of BID dosing on overall exposure.

in vivo = details: both, Beagle, dog, po, 30 mg/kg
Description: A single oral dose of 30 or 100 mg/kg was applied to dogs. Pharmacokinetic parameters were assessed and compared.
Male and female Beagle dogs.
Plasma concentrations were obtained by LC-MS/MS measurements.

Kv1.5 = molecular target: T2, Kv1.5 (Homo sapiens, UniProt P22460); assay: Whole-cell patch-clamp, Kv1.5 currents in stably transfected CHO cells; type: cell-based; details: summary statement
T2 construct: expressed in transfected cells; host or cells: CHO (ATCC CCL-61), stably transfected; selection with Hygromycin
Description: as §1, §2, §3, §4, §5

pKa of compound A = type: physicochemical
Solubility of compound A = type: physicochemical; details: for solubility: aqueous media

T1 sequence (Q13936 whole entry): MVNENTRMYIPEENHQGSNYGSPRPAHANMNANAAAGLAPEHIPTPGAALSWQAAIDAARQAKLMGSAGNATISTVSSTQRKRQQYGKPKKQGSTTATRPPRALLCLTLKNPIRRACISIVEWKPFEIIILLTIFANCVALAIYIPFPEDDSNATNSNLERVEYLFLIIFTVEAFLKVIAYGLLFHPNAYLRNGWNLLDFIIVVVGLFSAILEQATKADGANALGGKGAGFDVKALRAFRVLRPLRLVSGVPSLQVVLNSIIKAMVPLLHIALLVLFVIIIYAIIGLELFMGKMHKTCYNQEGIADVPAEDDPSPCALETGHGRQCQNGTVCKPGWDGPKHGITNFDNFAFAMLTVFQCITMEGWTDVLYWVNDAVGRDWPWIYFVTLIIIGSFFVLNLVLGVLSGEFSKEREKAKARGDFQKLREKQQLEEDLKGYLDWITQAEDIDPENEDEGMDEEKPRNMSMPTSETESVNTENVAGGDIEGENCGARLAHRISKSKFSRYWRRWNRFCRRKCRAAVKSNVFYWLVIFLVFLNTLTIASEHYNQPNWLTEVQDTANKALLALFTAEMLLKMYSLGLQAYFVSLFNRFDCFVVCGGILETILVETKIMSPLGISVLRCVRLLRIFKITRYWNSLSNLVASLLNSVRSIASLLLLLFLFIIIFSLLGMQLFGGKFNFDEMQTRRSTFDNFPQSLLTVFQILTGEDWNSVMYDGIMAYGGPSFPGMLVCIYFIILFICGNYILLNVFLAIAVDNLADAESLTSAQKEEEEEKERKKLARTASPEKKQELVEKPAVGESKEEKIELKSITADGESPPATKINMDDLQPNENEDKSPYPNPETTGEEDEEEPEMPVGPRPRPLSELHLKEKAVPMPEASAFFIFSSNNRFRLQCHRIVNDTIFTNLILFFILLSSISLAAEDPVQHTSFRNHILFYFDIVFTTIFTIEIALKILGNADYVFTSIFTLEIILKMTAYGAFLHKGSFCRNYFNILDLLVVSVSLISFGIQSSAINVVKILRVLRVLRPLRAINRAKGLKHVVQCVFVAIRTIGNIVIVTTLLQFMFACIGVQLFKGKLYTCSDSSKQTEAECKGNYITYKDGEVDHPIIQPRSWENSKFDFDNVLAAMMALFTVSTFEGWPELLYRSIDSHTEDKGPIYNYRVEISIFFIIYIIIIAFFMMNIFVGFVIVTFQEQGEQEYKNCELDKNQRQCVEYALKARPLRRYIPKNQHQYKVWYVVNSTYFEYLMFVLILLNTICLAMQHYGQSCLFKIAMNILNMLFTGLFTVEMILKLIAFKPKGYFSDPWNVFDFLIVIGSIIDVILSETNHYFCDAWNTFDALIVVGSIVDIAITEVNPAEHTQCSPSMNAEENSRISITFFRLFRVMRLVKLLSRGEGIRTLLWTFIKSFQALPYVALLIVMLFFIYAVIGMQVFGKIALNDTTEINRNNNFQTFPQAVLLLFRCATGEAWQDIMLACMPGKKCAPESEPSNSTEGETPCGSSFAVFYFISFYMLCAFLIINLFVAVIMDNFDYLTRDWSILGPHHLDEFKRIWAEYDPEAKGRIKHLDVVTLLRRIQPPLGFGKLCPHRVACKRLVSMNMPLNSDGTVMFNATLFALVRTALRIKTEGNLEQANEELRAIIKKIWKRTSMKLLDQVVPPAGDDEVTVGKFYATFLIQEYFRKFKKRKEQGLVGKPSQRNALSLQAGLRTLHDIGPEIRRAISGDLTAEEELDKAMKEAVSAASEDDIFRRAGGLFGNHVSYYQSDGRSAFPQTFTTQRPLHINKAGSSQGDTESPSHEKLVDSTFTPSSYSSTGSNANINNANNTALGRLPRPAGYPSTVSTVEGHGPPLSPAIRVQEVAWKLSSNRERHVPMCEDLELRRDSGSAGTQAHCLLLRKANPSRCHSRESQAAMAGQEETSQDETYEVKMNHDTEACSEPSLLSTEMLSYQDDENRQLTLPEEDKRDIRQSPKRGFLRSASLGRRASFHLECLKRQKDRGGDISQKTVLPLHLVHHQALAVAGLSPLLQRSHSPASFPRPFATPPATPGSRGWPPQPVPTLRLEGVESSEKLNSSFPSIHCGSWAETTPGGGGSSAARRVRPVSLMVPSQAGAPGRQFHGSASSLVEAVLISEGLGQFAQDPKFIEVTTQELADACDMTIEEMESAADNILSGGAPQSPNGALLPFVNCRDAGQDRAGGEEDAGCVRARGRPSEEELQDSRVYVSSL
T1 sequence (Q08289 whole entry partner): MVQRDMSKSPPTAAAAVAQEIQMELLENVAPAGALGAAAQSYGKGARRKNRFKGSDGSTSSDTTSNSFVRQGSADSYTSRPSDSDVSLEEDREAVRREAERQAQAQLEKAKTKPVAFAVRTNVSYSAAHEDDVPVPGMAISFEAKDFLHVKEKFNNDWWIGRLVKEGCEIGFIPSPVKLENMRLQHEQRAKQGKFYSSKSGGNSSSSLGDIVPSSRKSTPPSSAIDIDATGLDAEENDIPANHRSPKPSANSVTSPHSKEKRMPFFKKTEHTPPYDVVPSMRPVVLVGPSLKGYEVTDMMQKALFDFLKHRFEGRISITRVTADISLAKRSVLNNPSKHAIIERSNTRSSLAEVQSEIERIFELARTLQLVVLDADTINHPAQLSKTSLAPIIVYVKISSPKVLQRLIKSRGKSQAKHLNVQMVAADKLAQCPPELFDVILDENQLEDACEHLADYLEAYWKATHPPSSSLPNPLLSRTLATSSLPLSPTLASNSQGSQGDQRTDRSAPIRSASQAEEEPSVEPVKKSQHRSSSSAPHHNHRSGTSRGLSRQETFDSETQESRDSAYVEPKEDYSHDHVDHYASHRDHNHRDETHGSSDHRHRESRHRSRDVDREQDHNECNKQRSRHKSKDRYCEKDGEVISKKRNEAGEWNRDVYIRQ
T1 sequence (P54289 25-956 partner limits assumed): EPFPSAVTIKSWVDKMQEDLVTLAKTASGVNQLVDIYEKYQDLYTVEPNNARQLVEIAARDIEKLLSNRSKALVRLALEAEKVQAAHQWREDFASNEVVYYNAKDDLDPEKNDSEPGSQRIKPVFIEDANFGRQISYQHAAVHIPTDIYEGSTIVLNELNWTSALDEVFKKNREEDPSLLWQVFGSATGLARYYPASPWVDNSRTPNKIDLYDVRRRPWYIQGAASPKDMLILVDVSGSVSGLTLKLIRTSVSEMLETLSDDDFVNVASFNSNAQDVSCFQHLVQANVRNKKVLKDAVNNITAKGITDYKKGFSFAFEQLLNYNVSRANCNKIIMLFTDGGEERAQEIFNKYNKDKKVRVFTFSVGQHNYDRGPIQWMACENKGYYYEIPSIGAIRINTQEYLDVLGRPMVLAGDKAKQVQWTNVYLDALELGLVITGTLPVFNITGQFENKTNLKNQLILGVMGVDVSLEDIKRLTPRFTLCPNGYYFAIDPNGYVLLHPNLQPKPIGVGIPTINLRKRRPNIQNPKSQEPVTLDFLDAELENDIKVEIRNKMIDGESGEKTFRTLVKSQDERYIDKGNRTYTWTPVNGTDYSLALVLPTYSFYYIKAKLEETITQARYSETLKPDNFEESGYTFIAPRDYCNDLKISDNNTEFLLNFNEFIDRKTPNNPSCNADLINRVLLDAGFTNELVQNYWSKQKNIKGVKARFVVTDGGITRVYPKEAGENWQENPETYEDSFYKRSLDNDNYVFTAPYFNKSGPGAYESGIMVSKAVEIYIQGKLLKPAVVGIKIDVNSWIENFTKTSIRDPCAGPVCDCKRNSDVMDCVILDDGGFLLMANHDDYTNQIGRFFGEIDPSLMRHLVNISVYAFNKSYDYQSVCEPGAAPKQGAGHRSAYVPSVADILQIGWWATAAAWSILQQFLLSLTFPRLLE
T1 sequence (P54289 957-1103 partner limits assumed): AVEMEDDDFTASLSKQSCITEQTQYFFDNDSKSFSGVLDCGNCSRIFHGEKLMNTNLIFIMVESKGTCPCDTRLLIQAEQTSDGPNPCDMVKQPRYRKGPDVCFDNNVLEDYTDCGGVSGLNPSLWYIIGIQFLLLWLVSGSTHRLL
T2 sequence (P22460 whole entry): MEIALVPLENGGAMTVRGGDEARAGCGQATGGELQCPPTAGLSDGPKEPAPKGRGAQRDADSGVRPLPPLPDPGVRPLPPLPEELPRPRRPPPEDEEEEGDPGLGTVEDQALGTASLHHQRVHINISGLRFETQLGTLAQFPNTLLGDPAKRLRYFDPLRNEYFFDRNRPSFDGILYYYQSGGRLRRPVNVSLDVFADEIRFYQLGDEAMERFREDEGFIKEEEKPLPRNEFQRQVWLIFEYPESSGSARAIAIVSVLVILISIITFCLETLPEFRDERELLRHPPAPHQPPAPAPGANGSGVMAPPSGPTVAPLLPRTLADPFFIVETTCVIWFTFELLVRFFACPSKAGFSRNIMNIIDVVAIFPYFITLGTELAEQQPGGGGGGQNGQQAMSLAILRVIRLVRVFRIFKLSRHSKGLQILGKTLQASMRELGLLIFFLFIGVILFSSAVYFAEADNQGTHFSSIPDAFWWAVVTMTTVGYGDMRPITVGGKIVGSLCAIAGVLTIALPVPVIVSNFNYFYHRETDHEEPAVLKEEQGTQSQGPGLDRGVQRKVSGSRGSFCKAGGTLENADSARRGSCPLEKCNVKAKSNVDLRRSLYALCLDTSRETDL

Compound: O=C1NCc2c1ncnc2-c1cc(-c2cc(Cl)cc(OC(F)(F)F)c2)n(-c2cccnc2)n1 [Compound A, 4-[5-[3-Chloro-5-(trifluoromethoxy)phenyl]-1-(pyridin-3-yl)-1H-pyrazol-3-yl]-5,6-dihydro-7H-pyrrolo[3,4-d]pyrimidin-7-one]
- mortality (Beagle dogs; 3, 10 or 2 x 50 mg/kg b.w./day for 4 weeks, treatment and recovery period): None
- signs of systemic intolerance (behaviour, external appearance, faeces) (Beagle dogs; 3, 10 or 2 x 50 mg/kg b.w./day oral for 4 weeks and 4-week recovery): No compound A-related signs of systemic intolerance
- eyes and auditory acuity (Beagle dogs; 4 weeks): No changes or adverse effects
- haematology, clinical biochemistry, urinalysis, ophthamological and auditory examination, organ weights, bone marrow, histopathology (Beagle dogs; 4 weeks): No compound A-related influences
- macroscopic inspection at necropsy (Beagle dogs; 4 weeks): did not reveal any morphological changes
- histopathological examination (Beagle dogs; end of main study and of 4-week recovery period): did not reveal any Compound A-related morphological changes
- body weight and body weight gain; food and drinking water consumption (Beagle dogs; treatment period): No compound A-related influence
- interaction with ion channels of Cav (Cav1.2): do not interact with other ion channels of Nav, Kav, and Cav substantially
- exposure on split dosing ([1]; 100 mg/kg as 2 x 50 mg/kg 8 hours apart): small increase in exposure
- test item related findings ([1]; 30, 100 and 2 x 50 mg/kg, 10 days): No clear and consistent test item related findings
- exposure on dose increase ([1]; 30 to 100 mg/kg, 10 days): did not reveal a further increase in exposure
- AUC(0-inf) (in vivo): 297 µg·h/mL
- interaction with ion channels of Kav (Kv1.5): do not interact with other ion channels of Nav, Kav, and Cav substantially
- pKa (pKa of compound A): 2.3
- solubility (Solubility of compound A; pH 7.4, aqueous buffer): 50 to 70 µg/mL (≈ 106 to 148 µM)
- solubility (Solubility of compound A; simulated gastric fluid, pH 2.0): 400 µg/mL (≈ 846 µM)
- Solubility (test item description) (Solubility of compound A; description of the batch used in Example 3): soluble in water
- solubility in commonly used pharmaceutical excipients (Solubility of compound A; oils, cosolvents, surfactants): very low solubility
